Source: patent US10039747B2, “Tetrahydrocyclopentapyrrole derivatives and a method for preparing the same” (Daewoong Pharmaceutical Co., Ltd., priority 2013, dated 2018)

Target: T1, H+/K+-ATPase (Sus scrofa, UniProt P19156)
T1 construct: reaction buffer solution (60 mmol/l Tris-HCl buffer solution, pH 7.4) containing hog gastric vesicle; from tissue; host or cells: hog stomach (gastric vesicles, by centrifugation after Rabon et al. 1988)
Assay: Inhibition of proton pump (H+/K+-ATPase) activity in hog gastric vesicles
Assay type: biochemical
Details: K+ specific H+/K+-ATPase activity, pH 7.4, 37° C. for 40 minutes, malachite green
Method: 1) Preparation of Gastric Vesicles
Gastric vesicles were prepared from hog stomach by centrifugation (Edd C. Rabon et al., Preparation of Gastric H^+,K^+-ATPase, Methods in enzymology, vol. 157 Academic Press Inc., (1988), pp. 649-654). The protein contents of the prepared gastric vesicles were quantified with a Bicinchoninic Acid (BCA) kit.
2) Measurement of Effect of Inhibiting Proton Pump (H^+/K^+-ATPase) Activity
The effect of inhibiting proton pump activity by the compound of the present invention was measured in a 96-well plate. In this experiment, K^+ specific H^+/K^+-ATPase activity was calculated based on the difference between H^+/K^+-ATPase activity in the presence of K^+ ions and H^+/K^+-ATPase activity in the absence of K^+ ions. In the 96-well plate, to negative and positive control groups, 0.5% dimethylsulfoxide (DMSO) in buffer was added, and to the test groups, the compound of the present invention was added. All the analyses were conducted at room temperature with the reaction volume of 100 μl. To a reaction buffer solution (60 mmol/l Tris-HCl buffer solution, pH 7.4) containing hog gastric vesicle, DMSO and each concentration of compound were added, and then, 10 μl of a 10 mmol/l adenosine triphosphate tris buffer solution (60 mmol/l Tris-HCl buffer solution, pH 7.4) was added to initiate an enzyme reaction. The enzyme reaction was conducted at 37° C. for 40 minutes, 50 μl of a malachite green solution (0.12% malachite green solution, 5.8% ammonium molybdate and 11% tween 20 were mixed at a ratio of 100:67:2 in 6.2 N sulfuric acid) was added to stop the reaction, and 50 μl of 15.1% sodium citrate was added. During the reaction, the amount of monophosphate (Pi) was measured at 570 nm using micro plate reader (FLUOstar Omega, BMG Company). Inhibition rate (%) was measured from the activity values of the control groups and the activity values of various concentrations of the test compound, and IC50 of the test compound was calculated from each % inhibition value of the compound using Logistic 4-parameter function of Sigmaplot 8.0 program.

T1 sequence (P19156 2-1034 limits assumed): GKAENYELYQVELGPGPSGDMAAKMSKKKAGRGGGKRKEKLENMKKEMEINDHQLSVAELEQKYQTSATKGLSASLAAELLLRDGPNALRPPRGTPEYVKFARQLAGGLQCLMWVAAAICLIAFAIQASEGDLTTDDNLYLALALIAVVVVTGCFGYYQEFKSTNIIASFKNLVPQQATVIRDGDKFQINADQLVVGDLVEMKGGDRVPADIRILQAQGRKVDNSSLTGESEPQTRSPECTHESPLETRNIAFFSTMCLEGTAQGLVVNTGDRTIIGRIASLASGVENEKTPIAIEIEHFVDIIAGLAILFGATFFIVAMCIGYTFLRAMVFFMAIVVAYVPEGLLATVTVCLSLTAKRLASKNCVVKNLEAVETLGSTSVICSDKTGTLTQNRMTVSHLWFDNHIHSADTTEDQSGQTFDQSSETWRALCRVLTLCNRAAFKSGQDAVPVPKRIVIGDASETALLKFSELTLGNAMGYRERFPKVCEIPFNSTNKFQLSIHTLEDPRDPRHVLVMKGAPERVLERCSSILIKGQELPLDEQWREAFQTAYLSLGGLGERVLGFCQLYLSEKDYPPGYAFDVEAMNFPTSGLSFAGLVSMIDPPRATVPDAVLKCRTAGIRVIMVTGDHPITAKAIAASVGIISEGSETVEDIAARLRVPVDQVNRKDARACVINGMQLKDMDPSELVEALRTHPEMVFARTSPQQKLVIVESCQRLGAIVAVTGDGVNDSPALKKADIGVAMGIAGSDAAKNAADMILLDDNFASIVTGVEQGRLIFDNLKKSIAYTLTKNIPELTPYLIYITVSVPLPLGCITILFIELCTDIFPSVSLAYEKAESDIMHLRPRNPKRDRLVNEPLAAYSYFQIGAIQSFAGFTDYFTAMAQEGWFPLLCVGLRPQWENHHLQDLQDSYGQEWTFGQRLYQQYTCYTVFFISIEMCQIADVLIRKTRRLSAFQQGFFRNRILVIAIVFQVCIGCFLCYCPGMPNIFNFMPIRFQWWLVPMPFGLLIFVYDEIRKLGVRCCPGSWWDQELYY
T1 sequence (P18434 whole entry partner): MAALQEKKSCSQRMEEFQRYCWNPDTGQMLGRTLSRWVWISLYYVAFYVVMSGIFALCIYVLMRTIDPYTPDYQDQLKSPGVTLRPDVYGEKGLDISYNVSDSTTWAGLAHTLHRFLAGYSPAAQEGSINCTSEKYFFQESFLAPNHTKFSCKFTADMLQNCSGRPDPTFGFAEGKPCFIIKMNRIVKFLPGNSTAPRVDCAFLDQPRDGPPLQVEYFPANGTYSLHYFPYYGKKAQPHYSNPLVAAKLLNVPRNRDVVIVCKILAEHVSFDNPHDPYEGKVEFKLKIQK

Row | IC50 [nM] | SMILES
1 | 2570 | CNC1CCc2c1cn(Cc1cccc(OC)c1)c2-c1ccccc1F (stereo not shown) [Example 111, 1-(2-fluorophenyl)-2-(3-methoxybenzyl)-N-methyl-2,4,5,6-tetrahydrocyclopenta[c]pyrrol-4-amine]
2 | 410 | CNC1CCc2c1cn(S(=O)(=O)c1cccc(Cl)c1)c2-c1cc(Cl)ccc1Cl (stereo not shown) [Example 23, 2-((3-chlorophenyl)sulfonyl)-1-(2,5-dichlorophenyl)-N-methyl-2,4,5,6-tetrahydrocyclopenta[c]pyrrol-4-amine]
3 | 2190 | CNC1CCc2c1cn(S(=O)(=O)c1c(Cl)cc(Cl)cc1Cl)c2-c1ccccc1F (stereo not shown) [Example 85, 1-(2-fluorophenyl)-N-methyl-2-((2,4,6-trichlorophenyl)sulfonyl)-2,4,5,6-tetrahydrocyclopenta[c]pyrrol-4-amine]
4 | 30100 | CNC1CCc2c1cn(C(=O)c1cccc(Cl)c1)c2-c1ccc(F)cc1F (stereo not shown) [Example 114, (3-chlorophenyl)(1-(2,4-difluorophenyl)-4-(methylamino)-5,6-dihydrocyclopenta[c]pyrrol-2(4H)-yl)methanone]
5 | 420 | CNC1CCc2c1cn(S(=O)(=O)c1ccc(F)cc1)c2-c1ccc(C)cc1F (stereo not shown) [Example 60, 1-(2-fluoro-4-methylphenyl)-2-((4-fluorophenyl)sulfonyl)-N-methyl-2,4,5,6-tetrahydrocyclopenta[c]pyrrol-4-amine]
6 | 7010 | CNC1CCc2c1cn(S(=O)(=O)c1cccc(Cl)c1)c2Cc1ccccc1 (stereo not shown) [Example 27, 1-benzyl-2-((3-chlorophenyl)sulfonyl)-N-methyl-2,4,5,6-tetrahydrocyclopenta[c]pyrrol-4-amine]
7 | 450 | CNC1CCc2c1cn(S(=O)(=O)c1cccc(Cl)c1)c2-c1ccc(C)o1 (stereo not shown) [Example 32, 2-((3-chlorophenyl)sulfonyl)-N-methyl-1-(5-methylfuran-2-yl)-2,4,5,6-tetrahydrocyclopenta[c]pyrrol-4-amine]
8 | 550 | CNC1CCc2c1cn(S(=O)(=O)c1cccc(Cl)c1)c2-c1ccc(F)cc1 (stereo not shown) [Example 11, 2-((3-chlorophenyl)sulfonyl)-1-(4-fluorophenyl)-N-methyl-2,4,5,6-tetrahydrocyclopenta[c]pyrrol-4-amine]
9 | 2200 | CNC1CCCCc2c1cn(S(=O)(=O)c1cccc(Cl)c1)c2-c1ccccc1F (stereo not shown) [Example 145, 2-((3-chlorophenyl)sulfonyl)-1-(2-fluorophenyl)-N-methyl-2,4,5,6,7,8-hexahydrocyclohepta[c]pyrrol-4-amine]
10 | 2890 | CNC1CCc2c1cn(Cc1cccc(C)c1)c2-c1ccccc1F (stereo not shown) [Example 110, 1-(2-fluorophenyl)-N-methyl-2-(3-methylbenzyl)-2,4,5,6-tetrahydrocyclopenta[c]pyrrol-4-amine]
11 | 1500 | CNC1CCCc2c1cn(S(=O)(=O)c1cccc(F)c1)c2-c1ccccc1F (stereo not shown) [Example 120, 1-(2-fluorophenyl)-2-((3-fluorophenyl)sulfonyl)-N-methyl-4,5,6,7-tetrahydro-2H-isoindole-4-amine]
12 | 620 | CNC1CCc2c1cn(S(=O)(=O)c1ccc(Cl)c(Cl)c1Cl)c2-c1ccccc1F (stereo not shown) [Example 80, 1-(2-fluorophenyl)-N-methyl-2-((2,3,4-trichlorophenyl)sulfonyl)-2,4,5,6-tetrahydrocyclopenta[c]pyrrol-4-amine]
13 | 5820 | CNC1CCc2c1cn(S(=O)(=O)c1cccc(Cl)c1)c2-c1cccnc1C(F)(F)F (stereo not shown) [Example 38]
14 | 3300 | CNC1CC(C)(C)c2c1cn(S(=O)(=O)c1cccc(Cl)c1)c2-c1ccccc1F (stereo not shown) [Example 106, 2-((3-chlorophenyl)sulfonyl)-1-(2-fluorophenyl)-N,6,6-trimethyl-2,4,5,6-tetrahydrocyclopenta[c]pyrrol-4-amine]
15 | 450 | CNC1CCc2c1cn(S(=O)(=O)c1cccc(Cl)c1)c2-c1ccccc1 (stereo not shown) [Example 3, 2-((3-chlorophenyl)sulfonyl)-N-methyl-1-phenyl-2,4,5,6-tetrahydrocyclopenta[c]pyrrol-4-amine]
16 | 770 | CNC1CCc2c1cn(S(=O)(=O)c1cccc(C)c1)c2-c1cc(Cl)ccc1Cl (stereo not shown) [Example 53, 1-(2,5-dichlorophenyl)-N-methyl-2-(m-tolylsulfonyl)-2,4,5,6-tetrahydrocyclopenta[c]pyrrol-4-amine]

Row | IC50 [nM] | SMILES
17 | 2820 | CNC1CCc2c1cn(S(=O)(=O)c1cnc3onc(C)c3c1)c2-c1ccccc1F (stereo not shown) [Example 97, 1-(2-fluorophenyl)-N-methyl-2-((3-methylisoxazolo[5,4-b]pyridin-5-yl)sulfonyl-)2,4,5,6-tetrahydrocyclopenta[c]pyrrol-4-amine]
18 | 6000 | Cc1cccc(S(=O)(=O)n2cc3c(c2-c2ccccc2F)CCCC3N(C)C)c1 (stereo not shown) [Example 137, 1-(2-fluorophenyl)-N,N-dimethyl-2-(m-tolylsulfonyl)-4,5,6,7-tetrahydro-2H-isoindole-4-amine]
19 | 450 | CNC1CCc2c1cn(S(=O)(=O)c1cccc(Cl)c1)c2-c1cc(Cl)ccc1F (stereo not shown) [Example 22, 1-(5-chloro-2-fluorophenyl)-2-((3-chlorophenyl)sulfonyl)-N-methyl-2,4,5,6-tetrahydrocyclopenta[c]pyrrol-4-amine]
20 | 40000 | Cc1oc(=O)oc1COC(=O)N(C)C1CCc2c1cn(S(=O)(=O)c1cccc(Cl)c1)c2-c1ccccc1F (stereo not shown) [Example 118, (5-methyl-2-oxo-1,3-dioxol-4-yl)methyl (2-((3-chlorophenyl)sulfonyl)-1-(2-fluorophenyl)-2,4,5,6-tetrahydrocyclopenta[c]pyrrol-4-yl)(methyl)carbamate]
21 | 420 | CNC1CCc2c1cn(S(=O)(=O)c1cccc(OC(F)F)c1)c2-c1ccccc1F (stereo not shown) [Example 57, 2-((3-(difluoromethoxy)phenyl)sulfonyl)-1-(2-fluorophenyl)-N-methyl-2,4,5,6-tetrahydrocyclopenta[c]pyrrol-4-amine]
22 | 620 | CNC1CCc2c1cn(S(=O)(=O)c1cccc(Cl)c1)c2-c1cc(Cl)c(C)cc1F (stereo not shown) [Example 26, 1-(5-chloro-2-fluoro-4-methylphenyl)-2-((3-chlorophenyl)sulfonyl)-N-methyl-2,4,5,6-tetrahydrocyclopenta[c]pyrrol-4-amine]
23 | 5430 | CNC1CCc2c1cn(S(=O)(=O)c1cccc(Cl)c1)c2-c1ccncc1 (stereo not shown) [Example 42, 2-((3-chlorophenyl)sulfonyl)-N-methyl-1-(pyridin-4-yl)-2,4,5,6-tetrahydrocyclopenta[c]pyrrol-4-amine]
24 | 1260 | CNC1CCc2c1cn(S(=O)(=O)c1cccc(Cl)c1)c2-c1ccc(OC)cc1 (stereo not shown) [Example 14, 2-((3-chlorophenyl)sulfonyl)-1-(4-methoxyphenyl)-N-methyl-2,4,5,6-tetrahydrocyclopenta[c]pyrrol-4-amine]
25 | 800 | CNC1CCc2c1cn(S(=O)(=O)c1ccc(Oc3ccccc3)nc1)c2-c1ccccc1F (stereo not shown) [Example 96, 1-(2-fluorophenyl)-N-methyl-2-((6-phenoxypyridin-3-yl)sulfonyl)-2,4,5,6-tetrahydrocyclopenta[c]pyrrol-4-amine]
26 | 980 | CNC1CCc2c1cn(S(=O)(=O)c1cc(Cl)c(Cl)cc1Cl)c2-c1cc(Cl)ccc1Cl (stereo not shown) [Example 83, 1-(2,5-dichlorophenyl)-N-methyl-2-((2,4,5-trichlorophenyl)sulfonyl)-2,4,5,6-tetrahydrocyclopenta[c]pyrrol-4-amine]
27 | 1000 | CNC1CCc2c1cn(S(=O)(=O)c1ccc(C)cc1)c2-c1ccccc1F (stereo not shown) [Example 59, 1-(2-fluorophenyl)-N-methyl-2-tosyl-2,4,5,6-tetrahydrocyclopenta[c]pyrrol-4-amine]
28 | 520 | CNC1CCc2c1cn(S(=O)(=O)c1cccnc1)c2-c1ccc(C)cc1F (stereo not shown) [Example 90, 1-(2-fluoro-4-methylphenyl)-N-methyl-2-(pyridin-3-ylsulfonyl)-2,4,5,6-tetrahydrocyclopenta[c]pyrrol-4-amine]
29 | 540 | CNC1CCc2c1cn(S(=O)(=O)c1cccc(Cl)c1)c2-c1ccc(Cl)cc1F (stereo not shown) [Example 20, 1-(4-chloro-2-fluorophenyl)-2-((3-chlorophenyl)sulfonyl)-N-methyl-2,4,5,6-tetrahydrocyclopenta[c]pyrrol-4-amine]
30 | 430 | CNC1CCc2c1cn(S(=O)(=O)c1cc(Cl)ccc1Cl)c2-c1ccccc1F (stereo not shown) [Example 70, 2-((2,5-dichlorophenyl)sulfonyl)-1-(2-fluorophenyl)-N-methyl-2,4,5,6-tetrahydrocyclopenta[c]pyrrol-4-amine]
31 | 770 | CNC1CCc2c1cn(S(=O)(=O)c1cc(Cl)cc(Cl)c1)c2-c1cc(Cl)ccc1Cl (stereo not shown) [Example 79, 1-(2,5-dichlorophenyl)-2-((3,5-dichlorophenyl)sulfonyl)-N-methyl-2,4,5,6-tetrahydrocyclopenta[c]pyrrol-4-amine]
